{"source": "patent US8895502B2", "about": "“β2-glycoprotein I peptide inhibitors” (Kansas State University Research Foundation, priority 2010, dated 2014)", "key": {"B16-F10 mouse melanoma": {"tested_on": "B16-F10 mouse melanoma", "assay": "B16-F10 melanoma model, tumor growth and vascularization", "format": "in vivo", "protocol": "The mouse melanoma cell line, B16-F10 (ATCC CRL-6475), was cultured in DMEM supplemented with 10% fetal bovine serum at 8% CO2 until confluent. C57Bl/6 mice were injected subcutaneously with 2×10^6 cells mixed 1:1 in matrigel (BD Biosciences) and tumor growth was evaluated daily for up to 10 days using calipers. Some mice received 40 μM peptide daily for the first 4 days and then every other day until termination of the study. Control mice received N. saline. At the end of the study, the tumors were dissected and tumor volume determined by saline displacement. Photomicrographs (10×) of representative B16-F10 tumors extracted from C57Bl/6 wildtype mice were taken with a Nikon CoolSnap CF camera and an Olympus SZ61 microscope.\nThe study was repeated using additional C57Bl/6 mice, which were injected subcutaneously with 2×10^6 cells mixed with matrigel (above) 6-10 days before tumor excision. Peptide treated mice received 40 μM peptide 296Cys-Ser on days 1, 2, 3, 4, 6, and 8 after injection (n=2-5 animals/group) or days 3, 5, 7, 9 or only on days 4, 6, and 8. At the end of the study, the tumors were excised, measured, and volume was determined by aqueous displacement. Tumors were cut in half longitudinally with one half homogenized in Trizol for RNA and the other placed in OCT for histological analysis. Both halves were snap frozen and stored at −80° C. until used."}, "endoglin": {"tested_on": "endoglin", "assay": "B16-F10 melanoma model, endoglin expression in tumors", "format": "in vivo, mouse", "conditions": "peptide treatment on days 1-4, 6, and 8, qRT-PCR", "protocol": "(§1) mRNA was isolated from the tumor samples that were homogenized in Trizol. The concentration of mRNA was evaluated by nanodrop and the purity by bioanalyzer. cDNA was then synthesized using random primers with the Quanta cDNA synthesis kit. Real-time PCR was then performed on a 1:100 dilution of cDNA for 18s rRNA. After 3 min denaturing at 95° C., the real-time PCR reaction consisted of 50 cycles (of 10 sec at 95° C., 20 sec at 58° C., and 10 sec at 72° C.), followed by a melt curve increasing at intervals of 0.5° from 60° C. to 95° C. RT-PCR was also performed on cDNA samples for CD31 and endoglin which are endothelial markers of angiogenesis. Fold change of each gene was determined by subtracting 18s for normalization of RNA and fold change was determined by comparing to original cells which were set to 1. Primers were obtained from Integrated DNA Technology (Coraville, Iowa) and sequences are in the table below."}, "C57Bl/6 mice": {"tested_on": "C57Bl/6 mice", "assay": "Hemorrhage-induced intestinal damage and inflammation", "format": "in vivo, mouse", "conditions": "40 uM peptide after blood loss, 2 hours post-hemorrhage", "protocol": "After a 1-week acclimatization period, mice were anesthetized using […]. Mice undergoing hemorrhage were subjected to retro-orbital removal of 30% of the calculated blood volume (approximately 0.5 mL) over a 90-second period (Fleming, S. D. et al., J. Surg. Res. 150:196-203 (2008); Hylton, D. J. et al., Shock 34:467-474 (2010); Hylton, D. J. et al., Shock 35: 134-140 (2011)). Volume of blood to be removed was based on animal weight and ranged from […] (body weight in grams×0.025). The determined blood volume was measured in water and marked on both the collection tubes and the capillary tubing used for retro-orbital punctures. This ensured that the correct amount would be withdrawn. A single retro-orbital puncture was sufficient for blood collection. The 2 hour mortality rate was less than 1%. Sham mice were subjected to similar procedures with no blood removal. Mice were randomly assigned to receive 40 uM peptide (80 ng/mouse) in a volume of 80-150 μL, or an equal volume of normal saline. To prevent spontaneous complement activation, all studies were performed in the absence of heparin. At 2 hours post-hemorrhage, mice were euthanized and tissues collected for analysis. Intestinal tissues were formalin fixed for analysis of injury and frozen sections were obtained for immunohistochemistry. […]"}, "CD31": {"tested_on": "CD31", "assay": "Spontaneous breast cancer model, CD31 RNA expression", "format": "in vivo, mouse", "conditions": "mammary tumors, compared to saline treated animals", "protocol": "as §1, with “RT-PCR” for “Real-time PCR”, “0.5° C.” for “0.5°”, “VEGF” for “endoglin”, “After” for “Fold change of each gene was determined by”, “Ct values, peptide treated dCt values were normalized to saline treated samples” for “for normalization of RNA”, “calculated as ddCt.” for “was determined by comparing to original cells which were set to 1.”"}, "LTB4": {"tested_on": "LTB4", "assay": "Intestinal IR, ex vivo LTB4 generation", "format": "in vivo, mouse", "conditions": "40 μM peptide at 5 min prior to ischemia and 15-, 30- or 60-min post-ischemia"}}, "note": "Entries after “also recorded” stand apart in the source; their conditions may differ. Ends that are not written are not given here."}
{"substance": "H-IHFYSKNKEKKSSYTVEAHSRDGTI-OH [peptide 296Cys-Ser]", "values": [{"measurement": "tumor vascularization (appearance)", "setting": "B16-F10 mouse melanoma; 2 mice injected with melanoma cells and peptide", "result": "neither tumor appear vascularized"}, {"measurement": "tumor volume, normal saline displaced", "setting": "B16-F10 mouse melanoma; 2 mice injected with melanoma cells and peptide, day 8", "result": "0 to 0.1", "unit": "mL"}, {"measurement": "animals in which the tumor was either not present or had significantly diminished from the day of injection", "setting": "B16-F10 mouse melanoma; early treatment (days 1-4, 6, 8)", "result": "3 of 7"}, {"measurement": "angiogenesis in the B16F10 melanoma model", "setting": "B16-F10 mouse melanoma; mouse, in vivo", "result": "attenuates angiogenesis"}, {"measurement": "tumor growth and volume", "setting": "B16-F10 mouse melanoma; repeat study, compared to untreated mice", "result": "significantly decreased"}, {"measurement": "tumor growth", "setting": "B16-F10 mouse melanoma; treatment on days 1-4, 6, and 8", "result": "attenuated tumor growth; also recorded: prevented growth"}, {"measurement": "tumor growth", "setting": "B16-F10 mouse melanoma; treatment on days 3, 5, 7, and 9", "result": "attenuated tumor growth"}, {"measurement": "endoglin RNA expression within the tumors", "setting": "endoglin", "result": "attenuated"}, {"measurement": "hemorrhage-induced inflammation (PGE2 and IL-6 production)", "setting": "C57Bl/6 mice", "result": "significantly lower; also recorded: inhibit"}, {"measurement": "hemorrhage-induced intestinal damage", "setting": "C57Bl/6 mice", "result": "significantly lower; also recorded: inhibit"}, {"measurement": "RNA expression of CD31", "setting": "CD31", "result": "significantly decreased"}, {"measurement": "IR-induced LTB4, time course of administration", "setting": "LTB4", "result": "significantly inhibited"}]}
